Experimental data from patent US12522618B2, “Copper complexes for treatment of neurodegenerative disorders” (ALS Therapy Development Institute, priority 2020, dated 2026).

What was measured:
SOD1^G93A mice [1] = assay: Compound muscle action potential (CMAP) in SOD1^G93A mice; format: in vivo, mouse
SOD1^G93A mice [2] = assay: Disease onset (neuroscore NS2) and survival (NS4) in SOD1^G93A mice; format: in vivo, mouse; details: for Effect on disease onset / Effect on survival: male SOD1^G93A mice, 10 mg/kg or 30 mg/kg daily oral gavage, vs vehicle
Source text: The SOD1^G93A transgenic mouse model of ALS has been the most widely used animal model since the 1990s. The mouse was genetically engineered to overexpress a mutant form of the human Cu/Zn superoxide dismutase 1 (SOD1) gene harboring an ALS-associated glycine to alanine mutation at amino acid position 93 (G93A). These mice replicate many of the features of ALS, such as motor neuron loss, muscle wasting, progressive paralysis and decreased survival. Additionally, the SOD1^G93A mouse model has shown to be ideal for drug screening because of early onset of the disease and moderate progression.
The mice were treated with vehicle, 10 mg/kg or 30 mg/kg CuATSM or one of the derivatives: Compound 25 (2% DMSO, 10% KolliphorHS15), Compound 9 (0.5% methylcellulose), Compound 24 (0.5% methylcellulose, 0.4% TWEEN-80), and Compound 37 (0.5% methylcellulose, 0.4% TWEEN-80). Measurements were taken to assess compound muscle action potential (CMAP), neuroscore, and disease onset and survival.
Neuroscore is a neurological scoring system based on visual observations of the hindlimb designed to assess the neuromuscular function of SOD1^G93A mice. The hindlimb is observed due to this being the earliest reported neurological sign of disease in SOD1^G93A mice. This method provides an unbiased assessment of onset of paresis (slight or partial paralysis) and the progression and severity of the paralysis. This method has also proven to be sensitive enough to identify drug-induced changes in disease progression. Neuroscore is assigned on a 0-4 scale corresponding to the following observations: NS0=the hindlimbs present with a normal splay; NS1=hindlimbs present with an abnormal splay; NS2=the hindlimbs show signs of paresis or are partially paralyzed; NS3=rigid paralysis in the hindlimbs; NS4=the mouse is unable to right itself up. These measurements were used in the current study to assess disease onset.
The onset of disease in the SOD1^G93A mice typically happens around age day 90-100, with mice eventually succumbing to the disease around age day 120-130. For comparison, a wild-type mouse of the same background may live up to 2 years. The onset of the disease in the current study was defined as the time to observe a neuroscore of NS2 in the mouse, while a neuroscore of a NS4 was considered to be the humane end-point. Reported p-values to illustrate statistical significant represent a log-rank test.

[3] = test system: transgenic mouse models of ALS; details: transgenic mice expressing human SOD1 with familial ALS mutations; cited from earlier work
[4] = male SOD1^G93A mice, 10 mg/kg or 30 mg/kg daily, four weeks, vs vehicle

With `CCN/C1=N/N=C(c2ccc(CN3CCOCC3)o2)/C(C)=N/N=C(/NCC)[S][Cu][S]1` [Compound 24] the “CMAP values (change from baseline, % of baseline)” value (SOD1^G93A mice [1]; male SOD1^G93A mice, 10 mg/kg or 30 mg/kg daily oral gavage, five weeks, vs control) was “did not significantly improve CMAP values”.
With `CCN/C1=N/N=C(c2ccc(CN3CCN(C)CC3)o2)/C(C)=N/N=C(/NCC)[S][Cu][S]1` [Compound 37] the “Effect on disease onset” value (SOD1^G93A mice [2]) was “neither dose significantly affected”, the Effect on survival (SOD1^G93A mice [2]) was “neither dose significantly affected” and the CMAP decline (SOD1^G93A mice [1]; male SOD1^G93A mice, 10 mg/kg or 30 mg/kg daily oral gavage, four weeks) was “did not attenuate the CMAP decline”.
For `CN/C1=N/N=C(C)/C(Cc2cccnc2)=N/N=C(/NC)[S][Cu][S]1` [Compound 9], the “Effect on disease onset” value (SOD1^G93A mice [2]) was “did not significantly affect” and the Effect on survival (SOD1^G93A mice [2]) was “did not significantly affect”.
For `CN=C([S-])N/N=C(C)/C(C)=N/NC([S-])=NC.[Cu+2]` [CuATSM, reference compound], the “Protection in transgenic mouse models of ALS” value [3] is listed as “protective”, the “CMAP change from baseline” value (SOD1^G93A mice [1]; [4]) is listed as “no differences” and the “percent of baseline CMAP” value (SOD1^G93A mice [1]; [4]) is listed as “no differences”.
For `CN/C1=N/N=C(c2ccco2)/C(C)=N/N=C(/NC)[S][Cu][S]1` [Compound 25], the “Survival efficacy study (onset of neurological disease, survival, body weight, neurological score)” value (SOD1^G93A mice [2]; litter-matched, gender-balanced SOD1^G93A mice, chronic daily 30 mg/kg, vs control) was “displayed benefits”, the “CMAP as a percentage of baseline” value (SOD1^G93A mice [1]; SOD1^G93A mice, 10 mg/kg or 30 mg/kg daily oral gavage, 5 weeks, vs vehicle) was “significantly less change than the mice receiving vehicle” and the “CMAP change from baseline” value (SOD1^G93A mice [1]; SOD1^G93A mice, 10 mg/kg or 30 mg/kg daily oral gavage, five weeks, vs control) was “significant change in CMAP measurements from baseline compared to control mice”.
